# Test results: patent US20240002434A1, “METHODS OF INACTIVATING VIRAL CONTAMINANTS” (ICHNOS SCIENCES SA, priority 2017, published 2024)
# Test system: MLV
# Test: VRV study on Arginine treatment of PA eluate
# Assay type: cell-based, Murine Leukemia Virus
# Experimental: Based on the stability and activity studies reported in Example 1, the most promising viral inactivation methods were further tested for their ability to inactivate viruses. The effectiveness of the viral inactivation was evaluated by doing a spiking study at Bioreliance. Test samples were taken before and after each treatment and analyzed for viral titre. First, VRV study on Arginine treatment was carried out.
# Only one virus, MLV, which is a typical model virus used for biological products derived from CHO cell lines such as monoclonal antibody, was used for this study. A total of 7 runs were performed. PA eluate from development runs was used as starting material. Different stock buffers of Arginine at the different pH (pH 4.0, pH 4.75, pH 4.79 and pH 5.5) were used to reach the target pH and concentration. The samples were neutralized using 250 mM Histidine pH 12.0 buffer around pH 6.0 to stop the reaction.
# Log reduction values was calculated with respect to the neutralized load sample, a 5 plate large volume plating as well as a standard titration was performed on the t=60 min sample. The neutralized load hold sample was held at 16.0° C. to 20.0° C. for 60 minutes (runs 2, 4 and 6) or 120 minutes (runs 1, 3, 5 and 7).
smiles,measurement,setting,value
N=C(N)NCCC[C@H](N)C(=O)O [Arginine],log10 reduction factor,"Run 2, Arginine concentration (mM) 0.4, pH 4, 60 min",4.16 +/− 0.32 log10
same,log10 reduction factor,"Run 3, Arginine concentration (mM) 0.8, pH 4, 120 min",4.10 +/− 0.35 log10
same,log10 reduction factor,"Run 4, Arginine concentration (mM) 0.8, pH 4.75, 60 min",2.82 +/− 0.4 log10
same,log10 reduction factor,"Run 5, Arginine concentration (mM) 0.38, pH 4.79, 120 min",no reduction
same,log10 reduction factor,"Run 6, Arginine concentration (mM) 0, pH 5.5, 60, 120 min",0.35 +/− 0.4 log10
same,log10 reduction factor,"Run 7, Arginine concentration (mM) 0.8, pH 5.5, 120 min",no reduction
